According to ChEMBL document CHEMBL1909046, “DrugMatrix in vitro pharmacology data”:

What was measured:
[1] = target: T1, Muscarinic acetylcholine receptor M5 (Homo sapiens, UniProt P08912); type: cell membranes, CHO-K1, Membrane; conditions: for Ki: read-out: Ki; on all read-outs here: in other assays of this panel Not Active means under 50% inhibition at 10 µM
T1 sequence (P08912 whole entry): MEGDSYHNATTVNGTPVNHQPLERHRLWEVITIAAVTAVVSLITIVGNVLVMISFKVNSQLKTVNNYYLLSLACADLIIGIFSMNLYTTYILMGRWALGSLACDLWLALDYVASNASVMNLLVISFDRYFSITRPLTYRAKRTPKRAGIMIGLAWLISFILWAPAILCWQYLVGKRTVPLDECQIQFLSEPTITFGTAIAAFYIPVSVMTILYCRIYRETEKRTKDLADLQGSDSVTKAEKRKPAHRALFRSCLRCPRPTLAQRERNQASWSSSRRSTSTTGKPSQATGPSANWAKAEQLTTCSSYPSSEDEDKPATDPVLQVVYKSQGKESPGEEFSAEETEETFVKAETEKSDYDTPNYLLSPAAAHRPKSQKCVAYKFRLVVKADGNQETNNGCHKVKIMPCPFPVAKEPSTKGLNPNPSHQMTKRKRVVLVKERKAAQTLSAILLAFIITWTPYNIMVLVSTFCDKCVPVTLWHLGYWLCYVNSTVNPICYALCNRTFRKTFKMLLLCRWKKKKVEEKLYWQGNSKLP

[2] = DRUGMATRIX: Interleukin IL-1 radioligand binding (ligand: [125I] interleukin 1beta); type: cell membranes, Membrane; conditions: nih3t3; Not Active = under 50% inhibition at 10 µM
[3] = DRUGMATRIX: Glutamate, AMPA radioligand binding (ligand: [3H] AMPA); type: cell membranes, Rattus norvegicus, Wistar, Cerebral cortex, Membrane; conditions: Not Active = under 50% inhibition at 10 µM
[4] = target: T2, Cytochrome P450 1A2 (Homo sapiens, UniProt P05177); conditions: bti-tn-5b1-4; further: in other assays of this panel Not Active means under 50% inhibition at 10 µM
T2 sequence (P05177 whole entry): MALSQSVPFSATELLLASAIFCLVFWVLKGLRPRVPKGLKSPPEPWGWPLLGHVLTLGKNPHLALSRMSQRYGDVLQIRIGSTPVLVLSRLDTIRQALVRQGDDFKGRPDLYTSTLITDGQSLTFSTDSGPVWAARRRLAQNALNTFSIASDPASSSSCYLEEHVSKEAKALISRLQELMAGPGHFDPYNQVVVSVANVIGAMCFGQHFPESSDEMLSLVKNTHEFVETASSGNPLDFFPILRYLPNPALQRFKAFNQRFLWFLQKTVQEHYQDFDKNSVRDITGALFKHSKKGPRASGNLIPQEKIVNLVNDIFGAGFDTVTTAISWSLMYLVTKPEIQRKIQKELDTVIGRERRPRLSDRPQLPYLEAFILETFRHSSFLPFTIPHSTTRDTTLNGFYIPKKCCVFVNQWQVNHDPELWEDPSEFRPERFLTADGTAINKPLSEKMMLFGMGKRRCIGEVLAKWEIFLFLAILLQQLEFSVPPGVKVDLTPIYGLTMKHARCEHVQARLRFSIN

[5] = DRUGMATRIX: Nicotinic Acetylcholine radioligand binding (ligand: [125I] Epibatidine); type: cell membranes, Membrane; conditions: imr-32; Not Active = under 50% inhibition at 10 µM
[6] = DRUGMATRIX: GABAA, Chloride Channel, TBOB radioligand binding (ligand: [3H] TBOB); type: cell membranes, Rattus norvegicus, Wistar, Cerebral cortex, Membrane; conditions: Not Active = under 50% inhibition at 10 µM
[7] = target: 5-hydroxytryptamine receptor 4 (Cavia porcellus, UniProt O70528); type: cell membranes, Dunkin-Hartley, Striatum, Membrane; further: in other assays of this panel Not Active means under 50% inhibition at 10 µM
[8] = DRUGMATRIX: Purinergic P2X radioligand binding (ligand: [3H] alpha, beta-Methylene-ATP); type: cell membranes, Oryctolagus cuniculus, New Zealand albino, Urinary bladder, Membrane; conditions: Not Active = under 50% inhibition at 10 µM

Chain of 5-hydroxytryptamine receptor 4 (O70528 whole entry): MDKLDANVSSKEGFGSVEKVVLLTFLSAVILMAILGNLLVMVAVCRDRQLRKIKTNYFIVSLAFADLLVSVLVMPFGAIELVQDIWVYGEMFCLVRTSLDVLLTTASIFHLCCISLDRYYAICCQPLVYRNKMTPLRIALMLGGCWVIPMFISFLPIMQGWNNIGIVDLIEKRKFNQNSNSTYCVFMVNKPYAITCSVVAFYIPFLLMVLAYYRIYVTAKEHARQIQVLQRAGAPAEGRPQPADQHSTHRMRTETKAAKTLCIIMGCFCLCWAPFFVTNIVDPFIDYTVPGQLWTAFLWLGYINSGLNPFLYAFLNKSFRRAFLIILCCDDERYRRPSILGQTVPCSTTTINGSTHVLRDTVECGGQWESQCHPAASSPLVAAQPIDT

| SMILES | IC50 ([1]; cho-k1) | IC50 [2] | Ki [2] | IC50 [3] | Ki [3] | IC50 [4] | Ki [4] | IC50 [5] | Ki [5] | IC50 [6] | Ki [6] | IC50 [7] | IC50 [8] | Ki [8] | IC50 ([1]; read-out: IC50) [µM] | Ki [1] [µM] |
| --- | --- | --- | --- | --- | --- | --- | --- | --- | --- | --- | --- | --- | --- | --- | --- | --- |
| CCCNC(C)C(=O)Nc1ccccc1C (configuration not stated) [PRILOCAINE] | Not Active | Not Active | Not Active | Not Active | Not Active | Not Active | Not Active | Not Active | Not Active | Not Active | Not Active | Not Active | Not Active | Not Active |  |  |
| NS(=O)(=O)c1cc(C2(O)NC(=O)c3ccccc32)ccc1Cl (configuration not stated) [CHLORTHALIDONE] | Not Active | Not Active | Not Active | Not Active | Not Active | Not Active | Not Active | Not Active | Not Active | Not Active | Not Active | Not Active | Not Active | Not Active |  |  |
| CCN(CC)CCCC(C)Nc1c2ccc(Cl)cc2nc2ccc(OC)cc12 (configuration not stated) [QUINACRINE] |  | Not Active | Not Active | Not Active | Not Active | Not Active | Not Active | Not Active | Not Active | Not Active | Not Active | Not Active | Not Active | Not Active | 3.74 | 2.68 |
| CN1CCC(=C2c3ccccc3CC(=O)c3sccc32)CC1 [KETOTIFEN] |  | Not Active | Not Active | Not Active | Not Active | Not Active | Not Active | Not Active | Not Active | Not Active | Not Active | Not Active | Not Active | Not Active | 0.374 | 0.269 |
| Cc1c(O)cccc1C(=O)N[C@@H](CSc1ccccc1)[C@H](O)CN1C[C@H]2CCCC[C@H]2C[C@H]1C(=O)NC(C)(C)C |  | Not Active | Not Active | Not Active | Not Active | Not Active | Not Active | Not Active | Not Active | Not Active | Not Active | Not Active | Not Active | Not Active | 86.1 | 61.8 |
| Cn1c(=O)c2c(ncn2C)n(C)c1=O [CAFFEINE] | Not Active | Not Active | Not Active | Not Active | Not Active | Not Active | Not Active | Not Active | Not Active | Not Active | Not Active | Not Active | Not Active | Not Active |  |  |
| CC(C)NCC(O)c1ccccc1Cl (configuration not stated) [CLORPRENALINE] | Not Active | Not Active | Not Active | Not Active | Not Active | Not Active | Not Active | Not Active | Not Active | Not Active | Not Active | Not Active | Not Active | Not Active |  |  |
| NC(=O)c1cccnc1 [NIACINAMIDE] | Not Active | Not Active | Not Active | Not Active | Not Active | Not Active | Not Active | Not Active | Not Active | Not Active | Not Active | Not Active | Not Active | Not Active |  |  |
| CC(=O)OCC(=O)[C@@]12OC(C)(C)O[C@@H]1C[C@H]1[C@@H]3C[C@H](F)C4=CC(=O)C=C[C@]4(C)[C@@]3(F)[C@@H](O)C[C@@]12C [FLUOCINONIDE] | Not Active | Not Active | Not Active | Not Active | Not Active |  |  | Not Active | Not Active | Not Active | Not Active | Not Active | Not Active | Not Active |  |  |
| CC(C)(C(=O)O)c1ccc(C(O)CCCN2CCC(C(O)(c3ccccc3)c3ccccc3)CC2)cc1 (configuration not stated) [FEXOFENADINE] | Not Active | Not Active | Not Active | Not Active | Not Active |  |  | Not Active | Not Active | Not Active | Not Active | Not Active | Not Active | Not Active |  |  |
| C#C[C@]1(O)CC[C@H]2[C@@H]3CCC4=CC(=O)CC[C@]4(C)[C@H]3CC[C@@]21C [ETHISTERONE] | Not Active | Not Active | Not Active | Not Active | Not Active |  |  | Not Active | Not Active | Not Active | Not Active | Not Active | Not Active | Not Active |  |  |
| C[C@@H]1O[C@@H](O[C@H]2C[C@@H](O)[C@]3(CO)[C@H]4[C@H](O)C[C@]5(C)[C@@H](C6=CC(=O)OC6)CC[C@]5(O)[C@@H]4CC[C@]3(O)C2)[C@H](O)[C@H](O)[C@H]1O [OUABAIN] | Not Active | Not Active | Not Active | Not Active | Not Active |  |  | Not Active | Not Active | Not Active | Not Active | Not Active | Not Active | Not Active |  |  |
| C[C@@H]1C/C=C/C=C/C=C/C=C/[C@H](O[C@@H]2O[C@H](C)[C@@H](O)[C@H](N)[C@@H]2O)C[C@@H]2O[C@](O)(C[C@@H](O)C[C@H]3O[C@@H]3/C=C/C(=O)O1)C[C@H](O)[C@H]2C(=O)O [NATAMYCIN] | Not Active | Not Active | Not Active | Not Active | Not Active |  |  | Not Active | Not Active | Not Active | Not Active | Not Active | Not Active | Not Active |  |  |
| NC12CC3CC(CC(C3)C1)C2 [AMANTADINE] | Not Active | Not Active | Not Active | Not Active | Not Active |  |  | Not Active | Not Active | Not Active | Not Active | Not Active | Not Active | Not Active |  |  |
| CC(C)c1c(C(=O)Nc2ccccc2)c(-c2ccccc2)c(-c2ccc(F)cc2)n1CC[C@@H](O)C[C@@H](O)CC(=O)O [ATORVASTATIN] | Not Active | Not Active | Not Active | Not Active | Not Active |  |  | Not Active | Not Active | Not Active | Not Active | Not Active | Not Active | Not Active |  |  |
| CCOc1nc2cccc(C(=O)O)c2n1Cc1ccc(-c2ccccc2-c2nnn[nH]2)cc1 | Not Active | Not Active | Not Active | Not Active | Not Active |  |  | Not Active | Not Active | Not Active | Not Active | Not Active | Not Active | Not Active |  |  |
| CN(C)C(=N)NC(=N)N [METFORMIN] | Not Active | Not Active | Not Active | Not Active | Not Active |  |  | Not Active | Not Active | Not Active | Not Active | Not Active | Not Active | Not Active |  |  |
| N[C@@H](Cn1ccc(=O)c(O)c1)C(=O)O [L-MIMOSINE] | Not Active | Not Active | Not Active | Not Active | Not Active |  |  | Not Active | Not Active | Not Active | Not Active | Not Active | Not Active | Not Active |  |  |
| CC(C)(C)NCC(O)COc1cccc2c1CC(O)C(O)C2 (configuration not stated) [NADOLOL] | Not Active | Not Active | Not Active | Not Active | Not Active |  |  | Not Active | Not Active | Not Active | Not Active | Not Active | Not Active | Not Active |  |  |
